# In patent EP1649856A2, “Use of pimecrolimus for selective immunomodulation” (Novartis AG, priority 2001, dated 2002):
# How the values were obtained:
# [1] = tested on: SCID mice reconstituted with CD4^+CD45RB^HI T cells; assay: SCID-IBD mouse model, treatment from day 1 for 4 weeks; assay type: in vivo; details: for loss of original BW: 4 weeks post-T cell transfer (controls lost 15-18%); for colitis, histological inflammation of colon (score 0-8): 29 days
# Source text: A well-established animal model for IBD exists (see Leach et al., Am. J. Pathol., Vol. 148, No. 5, pp. 1503-1515 (1996), and Powrie et al., Int. Immunol., Vol. 5, No. 11, pp. 1461-1471 (1993)). It is known that the transfer of syngeneic, naive T lymphocytes (CD4^+CD45RB^HI) into SCID mice results in a severe colitis and wasting disease, SCID-IBD. Histopathologically, features of both CD and UC are represented in this model which has been used throughout the 1990s to bring the understanding of the pathoetiology of this disease of immune dysregulation in man to its present status. There is no other animal model of IBD which is considered relevant for the human disease, both in mechanism and in validity of clinical treatment.
# In this study, SCID mice reconstituted with CD4^+CD45RB^HI T lymphocytes were used. These mice are known to develop chronic colitis with characteristics similar to human IBD, as described above.
# In this study, SCID mice were reconstituted with 2 x 10^5 CD4^+CD45RB^HI T cells and then treated with pimecrolimus (30, 60 and 100 mg/kg/day) or vehicle daily p.o. for 4 weeks. […] BW was monitored throughout. On termination, blood was withdrawn, spleen, mesenteric lymph nodes (MLN) and colon were removed. Serum haptoglobin levels were measured (ELISA), colitis was assessed histologically and lymphocyte and neutrophil numbers were calculated from FACS analysis of blood, spleen and MLN cell suspensions.
# In order to determine the efficacy of ASM981 treatment in preventing intestinal mucosal damage in SCID-IBD mice, a histological examination of the colon sections was performed according to defined morphological parameters. All colon sections were assessed according to a scheme awarding degrees of severity governed by the extent of cell infiltration and inflammation with a score of 8 being the maximum.
# promoter for human IL-2 = assay: IL-2 reporter gene assay; assay type: cell-based; details: concentration required for 50% inhibition
# Source text: This assay method is disclosed and enabled in U.S. Patent No. 5,897,990, which is hereby incorporated by reference in its entirety and for all purposes.
# The cell line is preferentially a human T-cell or macrophage cell line, e.g., a Jurkat cell line, preferably selected for high native production of the desired gene product, for example, producing IL-2 in response to stimulation in the case of an IL-2 reporter gene assay. The reporter gene is any gene expressing a readily observable product, e.g., an enzyme marker such as β-galactosidase or luciferase, or any other suitable enzyme marker. For example, where the enzyme marker is β-galactosidase, the reporter gene is, e.g., a bacterial lacZ gene; where the enzyme marker is luciferase, the gene is, e.g., a Phorinus luciferase gene. Another suitable marker is the gene for the green fluorescent protein produced by the bioluminescent jellyfish, e.g., as described in Chalfie et al., Science, Vol. 263, pp. 802-805 (1994). The promoter gene is a promoter gene for a cytokine or protein for which transcription is stimulated or suppressed by the drug to be monitored.
# Blood samples from the patient are diluted, their effect on gene expression in the above described system is measured, and the assay is standardized using known concentrations of the immunosuppressive material.
# [2] = tested on: allergic contact dermatitis (ACD); assay: Mouse model of allergic contact dermatitis (ACD); assay type: in vivo; details: oral, same doses
# [3] = tested on: mixed-lymphocyte reaction; assay: mixed-lymphocyte reaction (MLR) assay; assay type: cell-based; details: Mus musculus
# Source text: In addition to the IL-2 reporter gene assay, the concentration of immunosuppressants, such as pimecrolimus and FK506 can be measured by the mixed-lymphocyte reaction (see Meo, The MLR in the Mouse", Immunological Methods, Lefkovits and Pemis, Eds., p. 227 Academic Press, NY).
# [4] = tested on: SCID mice reconstituted with CD4^+CD45RB^HI T cells; assay: SCID-IBD mouse model, delayed treatment of established IBD; assay type: in vivo; details: 100 mg/kg/day p.o. started after 7, 14 or 21 days, until 41 days
# Experimental: In order to determine if pimecrolimus is also effective once IBD is established, SCID mice were treated with pimecrolimus at a dose level of 100 mg/kg/day at days 7, 14 or 21 following the transfer of the disease causing CD4^+ T cells. The study was terminated after 41 days, i.e., the mice were treated for 33, 26 and 19 days, respectively.
# SCID mice were reconstituted with 2 x 10^5 CD4^+CD45RB^HI T cells and treatment with pimecrolimus (100 mg/kg/day p.o.) started after 7, 14 or 21 days and continued daily until 41 days. Treatment with the placebo formulation started after 7 days. BW was monitored once a week for the first 2 weeks and then twice weekly. Data are expressed as mean percent BW relative to the weight on day 0 ± s.e.m. for n = 9 (PBS), n = 8 (ASM(7d) & ASM(21d) and n = 7 (ASM(14d) and placebo) mice per group. PBS refers to the non-transferred mice which have been pooled with regard to percent BW values since no treatment dependent changes were found. p<0.01 relative to the placebo-treated group at 41 days.
# SCID mice were reconstituted with 2 x 10^5 CD4^+CD45RB^HI T cells and treatment with pimecrolimus (100 mg/kg/day p.o.) started after 7, 14 or 21 days and continued daily until 41 days. Treatment with the placebo formulation started after 7 days. On day 41, mice were killed and serum kept for haptoglobin assay. Data are expressed as mean haptoglobin (mg/mL) ± s.e.m. for n = 9 (PBS), n = 8 (ASM(7d)) and n = 7 (ASM(14d), ASM(21d) and placebo) mice per group. […]
# SCID mice were reconstituted with 2 x 10^5 CD4^+CD45RB^HI T cells and treatment with pimecrolimus (100 mg/kg/day p.o.) started after7, 14 or 21 days and continued daily until 41 days. […] Data are expressed as the mean neutrophil numbers, calculated from the percent positive cells and the total cell number per sample, ± s.e.m. for n mice (n in each bar) per group. p<0.05 calculated relative to the placebo-treated group.
# blood cells = details: 30 mg b.i.d. oral
# Experimental: Pimecrolimus was evaluated as treatment for psoriasis using an oral dose of 60 mg (30 mg b.i.d) during a 4-week clinical study. The cohort included 10 patients; 8 received the treatment and 2 received a placebo. Blood samples were collected before the first administration to establish the gene expression baseline and on days 13 or 14 after treatment with pimecrolimus or placebo and submitted to gene expression analysis in order to gain insights into the mechanisms of action of the compound.
# The RNA from blood samples drawn from each patient in the study was extracted and tested on individual DNA microarrays, thus allowing, for each patient, a comparison of gene expression before and after pimecrolimus treatment. […] Genes that were consistently modulated were sorted in functional categories.
# [5] = dose range 30-100 mg/kg/day p.o.
smiles,measurement,setting,value
"CC[C@@H]1/C=C(\C)C[C@H](C)C[C@H](OC)[C@H]2O[C@@](O)(C(=O)C(=O)N3CCCC[C@H]3C(=O)O[C@H](/C(C)=C/[C@@H]3CC[C@H](Cl)[C@H](OC)C3)[C@H](C)[C@@H](O)CC1=O)[C@H](C)C[C@@H]2OC [pimecrolimus, 33-epichloro-33-desoxy-ascomycin]",loss of original BW,[1]; 30 mg/kg/day p.o.,7.1%
same,"colitis, histological inflammation of colon (score 0-8)",[1]; 30 mg/kg/day p.o.,moderate to severe
same,block of neutrophil infiltration into the colon (MPO activity),[1]; 60 mg/kg/day p.o.,72%
same,loss of original BW,[1]; 60 mg/kg/day p.o.,8.8%
same,"colitis, histological inflammation of colon (score 0-8)",[1]; 60 mg/kg/day p.o.,moderate
same,mice with macroscopically normal feces (diarrhea),[1]; 100 mg/kg/day p.o.,Approximately half of the mice
same,neutrophil infiltration into the colon (MPO activity),[1]; 100 mg/kg/day p.o.,completely blocked
same,loss of original BW,[1]; 100 mg/kg/day p.o.,3.2%
same,"colitis, histological inflammation of colon (score 0-8)",[1]; 100 mg/kg/day p.o.,only mildly inflamed colons
same,reduction of Haptoglobin production (serum),[1]; [5],68-92%
same,reduction of blood neutrophilia,[1]; [5],85-96%
same,reduction of spleen neutrophilia,[1]; [5],74-83%
same,lymphocyte numbers in MLN,[1]; up to 100 mg/kg/day p.o.,significant reduction
same,lymphocyte numbers in blood or spleen,[1]; up to 100 mg/kg/day p.o.,did not significantly affect
same,IC50,promoter for human IL-2,1.5 nM
same,efficacy compared with FK506,[2],equipotent
same,IC50,[3],9 nM
same,acute phase response (serum haptoglobin) in established IBD,[4],inhibits the ongoing acute phase response
same,blood and spleen neutrophilia in established/ongoing colitis,[4],strongly inhibits
same,loss of BW in established/ongoing colitis,[4],highly-effective in reversing the loss of BW
same,toxic effect in the expression profile,blood cells,No obvious toxic effect
same,"expression of genes involved in asthma and IBD (RANTES, GALECTIN-3, Thromboxane A2 receptor, Glutathione peroxidase)",blood cells; days 13 or 14 vs baseline,specifically and significantly down-regulated
same,"expression of inflammatory mediators (Leukotriene A4 hydrolase, prostaglandin endoperoxide synthase)",blood cells; days 13 or 14 vs baseline,strongly down regulate
